{"source": "patent US20040131692A1", "about": "“Nanoparticles made of protein with coupled apolipoprotein e for penetration of the blood-brain barrier and methods for the production thereof” (priority 2001, published 2004)", "test_system": "mice", "test": "tail-flick test, analgesic effect (nociceptive response) after intravenous injection", "type": "in vivo", "conditions": "i.v. dalargin 7.5 mg/kg, comparison data originate from an earlier experiment", "protocol": "The preparation was applied to mice […] at a dosage of 7.5 mg/kg of dalargin. This corresponds to an application amount of 200 μl of the aforementioned preparation per mouse, based on an average body weight of a mouse of 20 g.\nThe analgesic effect (nociceptive response) was determined by the tail-flick test, in which a hot beam of light is projected onto the tail of the mouse and the time until the mouse draws away its tail is measured. After 10 seconds (=100% MPE) the experiment was truncated so as not to cause injury to the mouse. The maximally possible analgesic effect (MPE) was determined in accordance with the following formula: [formula]\nNegative MPE values result if after administration of the administration the mouse draws away its tail before the treatment.\nWith the aid of dalargin-loaded avidin-modified HSA nanoparticles the analgesic effects indicated in Table 1 were obtained after intravenous injection."}
{"substance": "dalargin [Dalargin solution]", "values": [{"measurement": "Analgesic effect [% MPE]", "setting": "30 min", "value": "10.0 ± 9.8", "unit": "% MPE"}, {"measurement": "Analgesic effect [% MPE]", "setting": "45 min", "value": "9.3 ± 2.8", "unit": "% MPE"}, {"measurement": "Analgesic effect [% MPE]", "setting": "90 min", "value": "4.7 ± 5.1", "unit": "% MPE"}, {"measurement": "Analgesic effect [% MPE]", "setting": "120 min", "value": "2.0 ± 6.1", "unit": "% MPE"}]}
